Measurements from publication PMC12203311, “Design, synthesis, in silico and in vitro evaluation of pyrrole–indole hybrids as dual tubulin and aromatase inhibitors with potent anticancer activities” (RSC Advances, 2025).

Tests used:
Assay in all cases: NCI60 five-dose screen
[1] = system: PC-3; assay type: cell-based; conditions: Homo sapiens, PC-3, prostate cancer
[2] = system: UACC-62; assay type: cell-based; conditions: Homo sapiens, UACC-62, melanoma
[3] = system: SF-295; assay type: cell-based; conditions: Homo sapiens, SF-295, CNS cancer
[4] = system: SN12C; assay type: cell-based; conditions: Homo sapiens, renal cancer
[5] = system: SNB-19; assay type: cell-based; conditions: Homo sapiens, SNB-19, CNS cancer
[6] = system: SK-MEL-5; assay type: cell-based, human; conditions: Homo sapiens
[7] = system: HCT-116; assay type: cell-based; conditions: Homo sapiens, HCT-116, colon cancer
[8] = system: NCI/ADR-RES; assay type: cell-based, human; conditions: Homo sapiens, ovarian cancer
[9] = system: ACHN; assay type: cell-based; conditions: Homo sapiens, renal cancer
[10] = system: UO-31; assay type: cell-based; conditions: Homo sapiens, UO-31, renal cancer
[11] = system: SK-OV-3; assay type: cell-based; conditions: Homo sapiens, SK-OV-3, ovarian cancer
[12] = system: HCT-15; assay type: cell-based; conditions: Homo sapiens, HCT-15, colon cancer
[13] = system: T-47D; assay type: cell-based; conditions: Homo sapiens, T47D, breast cancer
[14] = system: MCF7; assay type: cell-based; conditions: Homo sapiens, MCF7, breast cancer
[15] = system: MDA-MB-468; assay type: cell-based; conditions: Homo sapiens, MDA-MB-468, breast cancer
[16] = system: IGROV1; assay type: cell-based; conditions: Homo sapiens, IGROV-1; IGROV1, ovarian cancer
[17] = system: NCI-H226; assay type: cell-based; conditions: Homo sapiens, NCI-H226, NSC lung cancer
[18] = system: K-562; assay type: cell-based; conditions: Homo sapiens, K562, K-562, leukemia
[19] = system: EKVX; assay type: cell-based; conditions: Homo sapiens, NSC lung cancer
[20] = system: BT-549; assay type: cell-based; conditions: Homo sapiens, BT-549, breast cancer
[21] = system: MDA-MB-231/ATCC; assay type: cell-based; conditions: Homo sapiens, breast cancer
[22] = system: HT29; assay type: cell-based; conditions: Homo sapiens, HT-29, HT29, colon cancer
[23] = system: SNB-75; assay type: cell-based; conditions: Homo sapiens, SNB-75, CNS cancer
[24] = system: SF-268; assay type: cell-based; conditions: Homo sapiens, SF-268, CNS cancer
[25] = system: HCC-2998; assay type: cell-based; conditions: Homo sapiens, HCC-2998, colon cancer
[26] = system: OVCAR-8; assay type: cell-based; conditions: Homo sapiens, OVCAR-8, ovarian cancer
[27] = system: OVCAR-3; assay type: cell-based; conditions: Homo sapiens, OVCAR-3, ovarian cancer
[28] = system: RPMI-8226; assay type: cell-based; conditions: Homo sapiens, RPMI-8226, leukemia
[29] = system: MOLT-4; assay type: cell-based; conditions: Homo sapiens, MOLT-4, leukemia
[30] = system: SF-539; assay type: cell-based; conditions: Homo sapiens, SF-539, CNS cancer
[31] = system: A549/ATCC; assay type: cell-based; conditions: Homo sapiens, NSC lung cancer
[32] = system: SK-MEL-2; assay type: cell-based; conditions: Homo sapiens, SK-MEL-2, melanoma
[33] = system: LOX IMVI; assay type: cell-based; conditions: Homo sapiens, melanoma
[34] = read-out: LC50 (the source's name)

In the case of CCOC(=O)c1ccc(/C=N/NC(=O)c2[nH]c3ccc(Br)cc3c2-c2ccccc2)[nH]1 [Derivative 3i, Ethyl (E)-5-((2-(5-bromo-3-phenyl-1H-indole-2-carbonyl)hydrazono)methyl)-1H-pyrrole-2-carboxylate], the GI50 [1] is reported as 2.28 µM, the CC50 [1, 34] is reported as > 100 µM and the GI50 [2] is reported as 0.614 µM. For the same compound, the CC50 [2, 34] was 48.5 µM, the GI50 [3] was 1.8 µM and the CC50 [3, 34] was 38.1 µM. For the same compound, the GI50 [4] was 2.86 µM, the CC50 [4, 34] was 36.2 µM and the GI50 [5] was 2.98 µM. It also gave a CC50 [5, 34] of 62.8 µM, a CC50 ([6]; SK-MEL-5, SK-MEL-5, melanoma, read-out: LC50 (the source's name)) of 7.68 µM and a GI50 ([6]; SK-MEL-5, melanoma) of 1.48 µM. For the same compound, the GI50 [7] was 3.24 µM, the CC50 [7, 34] was > 100 µM and the GI50 [8] was 0.897 µM. The CC50 [8, 34] was 9.2 µM, the GI50 [9] was 1.86 µM and the CC50 [9, 34] was 73.8 µM. The GI50 [10] was 1.48 µM, the CC50 [10, 34] was > 100 µM and the GI50 [11] was 4.01 µM. For the same compound, the CC50 [11, 34] was > 100 µM, the GI50 [12] was 2.48 µM and the CC50 [12, 34] was 40.5 µM. The GI50 [13] was 4.2 µM, the CC50 [13, 34] was > 100 µM and the GI50 [14] was 1.54 µM. For the same compound, the CC50 [14, 34] was > 100 µM, the GI50 [15] was 1.63 µM and the CC50 [15, 34] was 36.6 µM. The GI50 [16] was 2.02 µM, the GI50 [17] was 3.13 µM and the CC50 [17, 34] was 45.4 µM. The GI50 [18] was 1.08 µM, the CC50 [18, 34] was > 100 µM and the GI50 [19] was 4.29 µM. For the same compound, the CC50 [19, 34] was > 100 µM, the GI50 [20] was 3.47 µM and the CC50 [20, 34] was > 100 µM. It also gave a GI50 [21] of 2.63 µM, a CC50 [21, 34] of 33.2 µM and a GI50 [22] of 2.32 µM. For the same compound, the CC50 [22, 34] was 22.9 µM, the GI50 [23] was 0.399 µM and the CC50 [23, 34] was > 100 µM. The GI50 [24] was 2.68 µM, the CC50 [24, 34] was > 100 µM and the GI50 [25] was 2.51 µM. The CC50 [25, 34] was 36.4 µM, the GI50 [26] was 2.49 µM and the CC50 [26, 34] was 47.6 µM. It also gave a GI50 [27] of 2.63 µM, a CC50 [27, 34] of 40.7 µM and a GI50 [28] of 2.28 µM. The CC50 [28, 34] was > 100 µM, the GI50 [29] was 2.49 µM and the CC50 [29, 34] was > 100 µM. The GI50 [30] was 1.6 µM, the CC50 [30, 34] was 26.2 µM and the GI50 [31] was 3.25 µM. It also gave a CC50 [31, 34] of 79.4 µM, a GI50 [32] of 2.38 µM and a CC50 [32, 34] of 55 µM. It also gave a GI50 [33] of 2.26 µM and a CC50 [33, 34] of 35.2 µM.
